Measurements taken from patent US20040053355A1, “Modular approach to on-line synthesis, drug discovery and biochemical transformations using immobilized enzyme reactors” (priority 2000, published 2004).

What was measured:
[1] = biological target: T1, DBH-Glut-P IMER (immobilized dopamine beta-hydroxylase) (Bos taurus, UniProt P15101); assay: On-line DBH-Glut-P immobilized enzyme reactor (DBH-Glut-P IMER) HPLC system; assay type: biochemical, bovine
T1 construct: purchased
T1 sequence (P15101 1-610): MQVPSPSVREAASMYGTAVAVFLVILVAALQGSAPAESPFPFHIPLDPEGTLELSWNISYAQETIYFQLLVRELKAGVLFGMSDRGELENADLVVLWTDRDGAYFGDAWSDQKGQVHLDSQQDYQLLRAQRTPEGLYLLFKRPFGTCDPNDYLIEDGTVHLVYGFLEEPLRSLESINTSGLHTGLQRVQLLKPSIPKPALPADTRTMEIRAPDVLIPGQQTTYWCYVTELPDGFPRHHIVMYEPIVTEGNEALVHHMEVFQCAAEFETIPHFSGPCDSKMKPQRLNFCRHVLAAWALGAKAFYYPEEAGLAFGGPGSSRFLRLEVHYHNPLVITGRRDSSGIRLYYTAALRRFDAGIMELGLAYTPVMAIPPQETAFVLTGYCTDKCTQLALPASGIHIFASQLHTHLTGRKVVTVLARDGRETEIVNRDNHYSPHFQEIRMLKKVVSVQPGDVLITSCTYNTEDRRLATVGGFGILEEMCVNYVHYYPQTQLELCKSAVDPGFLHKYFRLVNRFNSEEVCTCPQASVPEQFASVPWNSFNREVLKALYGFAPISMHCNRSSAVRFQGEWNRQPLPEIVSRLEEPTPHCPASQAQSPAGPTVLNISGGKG
From the text: DBH immobilized on the IAM or Glut-P stationary phase was packed into a 1 cm×10 mm guard (Regis Technologies). The guard was placed in a holder and the resulting column connected to a chromatographic system. THE DBH-IAM-IMER and the DBH-Glut-P-IMER was washed with sodium acetate buffer [0.1M, pH 5.5] and sodium acetate buffer [0.1M, pH 6.0], respectively. The eluent from both IMERs was collected in order to determine if any of the DBH was being washed off the columns. The Biorad assay was utilized to measure the amount of non-immobilized enzyme. When the columns were not in use they were washed with sodium acetate buffer at the respective pHs and stored at 4° C.
Pumps 2 and 3 on system 2 and 3 were stopped. 100 μl of a substrate/cofactor mixture is loaded into the injector (i) and the valve is switched to the inject position at the same time the witching valve (SV) is switched such that substrate/product are eluted from the DBH-IMERs and concentrated onto the PBA column of system 2.The second pump was started and mobile phase A was pumped through the PBA column at a flow rate of 0.1 ml/min for 30 sec in order to elute, ascorbic acid and any other by-products produced from the reaction. The pump was then switched to mobile phase B with a flow rate of 0.1 ml/min for 2 min and simultaneously SV1 was switched such that unreacted substrate and product formed were concentrated on the analytical columns of System 3. When the specific contact time elapses the SV2 is switched back to the original position and the pump 3 is started.
The enzymatic activity on the DBH-Glut-P was determined by quantification of the amount of product formed with a given substrate. The temperature of the IMER unless otherwise stated was kept at 37° C. with a column heater. Stock solutions of tyramine were prepared in water. […] The kinetic parameters were determined using standard Michaelis-Menten approach. […] The rates of reaction (Vmax) were calculated using […]mol/mg/min. Results are expressed as mean±standard error of the mean (SEM). […]

[2] = biological target: T2, dopamine beta-hydroxylase immobilized onto IAM (DBH-IAM) (Bos taurus, UniProt P15101); assay: DBH immobilized onto IAM stationary phase (DBH-IAM), batch assay; assay type: biochemical, bovine
T2 construct: purchased
T2 sequence (P15101 1-610): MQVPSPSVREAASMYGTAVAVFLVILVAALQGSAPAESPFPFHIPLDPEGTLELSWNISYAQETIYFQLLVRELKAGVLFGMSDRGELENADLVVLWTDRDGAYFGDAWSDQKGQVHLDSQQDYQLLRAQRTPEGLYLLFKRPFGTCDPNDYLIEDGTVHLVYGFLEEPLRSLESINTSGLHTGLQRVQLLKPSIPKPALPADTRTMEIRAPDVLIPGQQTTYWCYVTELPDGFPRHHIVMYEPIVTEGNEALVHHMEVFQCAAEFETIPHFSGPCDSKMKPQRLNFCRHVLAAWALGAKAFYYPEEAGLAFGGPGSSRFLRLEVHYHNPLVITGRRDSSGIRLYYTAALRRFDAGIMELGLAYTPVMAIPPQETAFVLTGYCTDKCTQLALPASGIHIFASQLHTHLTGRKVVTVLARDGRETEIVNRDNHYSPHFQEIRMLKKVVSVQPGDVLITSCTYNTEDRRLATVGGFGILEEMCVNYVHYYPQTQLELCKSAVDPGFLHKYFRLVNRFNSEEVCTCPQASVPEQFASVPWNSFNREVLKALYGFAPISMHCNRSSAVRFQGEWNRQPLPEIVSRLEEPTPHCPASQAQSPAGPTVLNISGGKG
Experimental: (§1) The enzyme was assayed as follows: four different solutions were prepared A, B, C and D (final concentration). (A) 500 μL of enzyme solution (10 μg/ml); B: 275 μL sodium acetate buffer (10 mM, pH 5.5), 50 μL cupric sulphate (5 μM); C: 25 μL catalase (5 μg/ml), 50 μL ascorbic acid (10 mM), 50 μl sodium fumarate (10 mM); D: 50 μl substrate (5 mM). Solution B was added to solution A, the resulting solution was mixed for 1 min. Solution C was added and the resulting solution was mixed for an additional minute. The reaction was started with the addition of the substrate (D), after which the reaction solution was incubated for 5 min at 37° C. in a shaking bath. The reaction was stopped by the addition of 100 μl of cold hexane, the resulting mixture was centrifuged at 3000×g for 10 min and the supernatant transferred to the pre-conditioned phenylboronic acid cartridges in order to extract the product formed and the remaining substrate. Extracted samples were directly injected onto the HPLC under either chiral or achiral conditions.
The packing material was washed three times with sodium acetate buffer (0.1M, pH 5.5). The washing was carried out by adding 1 ml of buffer to the packing material, the suspension was vortexed for 1 min, centrifuged at 3000×g for 10 min and the supernatant decanted. The enzyme solution (8-10 μg in 1 ml sodium acetate buffer) was added to the packing material, the mixture was vortexed for 15 min and then placed in a shaking bath for 2 h at ambient temperature. At the end of 2 h, the suspension was centrifuged, the supernatant decanted and the packing material washed three additional times with buffer. The amount of enzyme immobilized on the packing material was determined by measuring the amount of residual enzyme in the supernatant using the BioRad Protein Assay. The difference in the absorbance reading before immobilization and the total of absorbances after immobilization determined the amount of enzyme bound on the packing material.

[3] = biological target: T3, dopamine beta-hydroxylase (DBH), non-immobilized (Bos taurus, UniProt P15101); assay: Non-immobilized DBH activity assay, batch incubation with HPLC-fluorescence analysis; assay type: biochemical, bovine
T3 construct: purchased
T3 sequence (P15101 1-610): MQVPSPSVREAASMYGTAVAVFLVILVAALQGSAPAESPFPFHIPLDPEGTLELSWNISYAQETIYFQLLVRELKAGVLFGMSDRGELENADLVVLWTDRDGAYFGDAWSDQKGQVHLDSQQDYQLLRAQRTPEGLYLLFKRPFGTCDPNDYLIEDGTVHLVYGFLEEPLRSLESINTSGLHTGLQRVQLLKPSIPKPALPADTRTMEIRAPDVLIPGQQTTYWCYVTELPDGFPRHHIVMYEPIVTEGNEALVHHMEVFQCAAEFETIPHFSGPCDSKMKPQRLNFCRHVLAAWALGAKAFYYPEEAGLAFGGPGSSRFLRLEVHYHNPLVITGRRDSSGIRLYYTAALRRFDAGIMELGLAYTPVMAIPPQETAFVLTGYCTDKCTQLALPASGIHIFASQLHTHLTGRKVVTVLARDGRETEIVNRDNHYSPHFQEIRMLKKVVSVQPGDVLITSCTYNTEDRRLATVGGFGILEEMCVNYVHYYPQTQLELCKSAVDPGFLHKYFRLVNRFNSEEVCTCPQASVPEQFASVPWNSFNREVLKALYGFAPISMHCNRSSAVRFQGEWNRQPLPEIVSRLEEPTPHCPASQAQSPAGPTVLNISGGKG
Experimental: The solutes were quantitated using fluorescence detection with excitation at λ=265 nm and no cut-off filter for emission. A flow rate of 1 ml/min and ambient temperature were used throughout the study.
Enzymatic conversions utilizing DBH require cupric sulphate, catalase, ascorbic acid and sodium fumarate. An off-line extraction method utilizing solid phase extraction cartridges containing a phenylboronic acid stationary phase was developed. The procedure consisted of the following: 1-ml cartridges were conditioned with 2 ml of methanol followed by 2 ml of sodium phosphate buffer (0.1M, pH 8.4). One ml of reaction mixture was added, the cartridge was then washed with 1 ml sodium phosphate buffer (0.1M, pH 8.4) and the substrate and product were eluted using 1 ml of 0.1N HCl. The eluate was directly injected onto the HPLC system.
as §1

[4] = substrate: NCCc1ccc(O)cc1; assay: DBH immobilized onto IAM stationary phase (DBH-IAM), batch assay; assay type: biochemical, bovine; details: other: DBH-IAM; pH 5.5; 37.0 °C
[5] = substrate: NCCc1ccc(O)c(O)c1; assay: purified protein, by the assay type; details: other: DBH-IAM; pH 5.5; 37.0 °C
[6] = read-out: % Control Activity DBH-IAM
[7] = read-out: % Control Activity DBH

Q: What does the source list for `CCCCc1ccc(C(=O)O)nc1` [Fusaric acid, fusaric acid]?
A: IC50 [1]: 5.6 nM; inhibition of DBH mediated formation of norepinephrine from dopamine ([2]; immobilized enzyme (DBH-IAM), concentrations as low as 10^−6M): approximately 50%; remaining activity at 0.0016 µM [2, 6]: 91%; remaining activity at 0.0032 µM [2, 6]: 73%; remaining activity at 0.0063 µM [2, 6]: 56%; remaining activity at 0.0125 µM [2, 6]: 51%; remaining activity at 0.025 µM [2, 6]: 46%; remaining activity at 0.05 µM [2, 6]: 20%; remaining activity at 0.1 µM [2, 6]: 0%; remaining activity at 0.2 µM [2, 6]: 0%; IC50 [3]: 7.5 nM; inhibition of DBH mediated formation of norepinephrine from dopamine ([3]; non-immobilized enzyme, concentrations as low as 10^−6M): approximately 50%; remaining activity at 0.0016 µM [3, 7]: 99%; remaining activity at 0.0032 µM [3, 7]: 84%; remaining activity at 0.0063 µM [3, 7]: 40%; remaining activity at 0.0125 µM [3, 7]: 21%; remaining activity at 0.025 µM [3, 7]: 19%; remaining activity at 0.05 µM [3, 7]: 17%; remaining activity at 0.1 µM [3, 7]: 0%; remaining activity at 0.2 µM [3, 7]: 0%

B1: dopamine beta-hydroxylase immobilized onto IAM (DBH-IAM) (Bos taurus) (protein)
chain: MQVPSPSVREAASMYGTAVAVFLVILVAALQGSAPAESPFPFHIPLDPEGTLELSWNISYAQETIYFQLLVRELKAGVLFGMSDRGELENADLVVLWTDRDGAYFGDAWSDQKGQVHLDSQQDYQLLRAQRTPEGLYLLFKRPFGTCDPNDYLIEDGTVHLVYGFLEEPLRSLESINTSGLHTGLQRVQLLKPSIPKPALPADTRTMEIRAPDVLIPGQQTTYWCYVTELPDGFPRHHIVMYEPIVTEGNEALVHHMEVFQCAAEFETIPHFSGPCDSKMKPQRLNFCRHVLAAWALGAKAFYYPEEAGLAFGGPGSSRFLRLEVHYHNPLVITGRRDSSGIRLYYTAALRRFDAGIMELGLAYTPVMAIPPQETAFVLTGYCTDKCTQLALPASGIHIFASQLHTHLTGRKVVTVLARDGRETEIVNRDNHYSPHFQEIRMLKKVVSVQPGDVLITSCTYNTEDRRLATVGGFGILEEMCVNYVHYYPQTQLELCKSAVDPGFLHKYFRLVNRFNSEEVCTCPQASVPEQFASVPWNSFNREVLKALYGFAPISMHCNRSSAVRFQGEWNRQPLPEIVSRLEEPTPHCPASQAQSPAGPTVLNISGGKG
notes: purchased
Q: What does the source list for B1?
A: Km [4]: 1640 µM; Vmax [4]: 0.101 µmol/mg/min; Km [5]: 2530 µM; Vmax [5]: 0.160 µmol/mg/min
